# Measured values from US20250289814A1, “COMPOUNDS AS PARP1 INHIBITIORS” (NINGBO NEWBAY TECHNOLOGY DEVELOPMENT CO., LTD., priority 2022, published 2025).
# What was measured:
# [1] = target: Recombinant full length PARP2 (Homo sapiens (Human), UniProt Q9UGN5); test: FP assay PARP2 (fluorescence anisotropy probe displacement); type: binding; details: 60 nM PARP2, 8 nM fluorescent probe, 4 h, room temperature
# Procedure: (§1) FP experiments were carried out at room temperature using no-binding black 384-well microplates. Recombinant full length PARP1 and PARP2 proteins produced in house were diluted to 20 nM and 60 nM, respectively, with assay buffer (50 mM Tris pH 8, 0.001% Triton X100, 10 mM MgCl2, and 150 mM NaCl) and incubated for 4 h with an equivalent volume of the 8 nM fluorescent probe diluted with assay buffer. Fluorescence anisotropy of the probe when bound to the proteins was measured in the presence of test compounds or solvent control and the effect on anisotropy determined. Polarization values were read using an Envision plate reader using excitation and emission wavelengths of 590 and 630 nm, respectively. All FP values are expressed as mP units. Inhibition ratio was calculated using readout (mP) following the equation as below: […]
# (§2) % inhibition values for different test compound concentrations were calculated and fitted to a four parameter logistic plot in order to determine the IC50 value using XLfit.
# [2] = target: Recombinant full length PARP1 (Homo sapiens (Human), UniProt P09874); test: FP assay PARP1 (fluorescence anisotropy probe displacement); type: binding; details: 20 nM PARP1, 8 nM fluorescent probe, 4 h, room temperature
# Sequence of Recombinant full length PARP1 (P09874 whole entry): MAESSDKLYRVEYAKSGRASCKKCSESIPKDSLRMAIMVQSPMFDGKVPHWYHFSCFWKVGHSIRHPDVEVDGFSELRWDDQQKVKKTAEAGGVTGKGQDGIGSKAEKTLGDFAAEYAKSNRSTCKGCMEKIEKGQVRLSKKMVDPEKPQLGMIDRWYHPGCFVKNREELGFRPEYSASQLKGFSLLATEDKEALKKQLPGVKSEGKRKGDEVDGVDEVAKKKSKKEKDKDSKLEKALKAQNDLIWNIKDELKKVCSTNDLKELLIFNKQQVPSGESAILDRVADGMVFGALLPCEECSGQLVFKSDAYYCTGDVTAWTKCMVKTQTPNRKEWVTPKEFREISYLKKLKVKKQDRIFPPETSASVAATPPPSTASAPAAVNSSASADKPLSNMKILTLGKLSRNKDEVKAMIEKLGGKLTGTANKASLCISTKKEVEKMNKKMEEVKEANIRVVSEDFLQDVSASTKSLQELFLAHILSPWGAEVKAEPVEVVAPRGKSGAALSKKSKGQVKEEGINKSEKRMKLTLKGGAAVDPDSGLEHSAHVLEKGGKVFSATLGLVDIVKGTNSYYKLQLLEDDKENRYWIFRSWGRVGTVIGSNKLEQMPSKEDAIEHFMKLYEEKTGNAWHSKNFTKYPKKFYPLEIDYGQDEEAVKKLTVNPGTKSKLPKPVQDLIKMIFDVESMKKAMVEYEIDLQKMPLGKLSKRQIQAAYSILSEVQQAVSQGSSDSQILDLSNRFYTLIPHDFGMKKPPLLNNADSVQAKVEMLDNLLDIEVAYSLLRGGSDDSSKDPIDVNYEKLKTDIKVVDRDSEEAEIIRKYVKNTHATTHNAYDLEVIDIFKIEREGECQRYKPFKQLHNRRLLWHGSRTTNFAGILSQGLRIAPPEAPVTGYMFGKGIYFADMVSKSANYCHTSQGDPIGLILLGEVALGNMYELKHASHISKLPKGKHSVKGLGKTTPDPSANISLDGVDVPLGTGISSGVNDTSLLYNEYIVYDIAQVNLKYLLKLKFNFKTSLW
# Procedure: as §1, §2
# DLD1-BRCA2−/− cells = test: Cell proliferation assay in DLD1-BRCA2−/− cell lines (CellTiter-Glo, 7 days); type: cell-based; details: Homo sapiens, DLD-1, 168 h
# Procedure: BRCA2 (−/−) cells cultured in RPMI 1640+10% FBS were harvested and diluted to a density of 1×10^4 cells/mL and 2×10^4 cells/mL, respectively. Cells (40 μL/well) were seeded into 384-well cell culture plates. Plates were covered and incubated at 37° C., 5% CO2 overnight prior to the addition of test compounds or vehicle. The plates were then incubated at 37° C., 5% CO2 for 7 days. On day 8, the plates were removed from incubator and equilibrated at room temperature for 15 minutes. CellTiter-Glo (40 μL, at 1:1 to culture medium) is added into each well and the plates were placed at room temperature for 30 min. Luminescence was measured using an Envision plate reader. The resultant data were analysed as follows; where LC is culture medium without cells:
# % inhibition values for different test compound concentrations were calculated and fitted to a four parameter logistic plot in order to determine the IC50 value using XLfit
# [3] = Caco2 (A-B/B-A) permeability; type: in vitro ADME; details: human; for efflux ratio at 120 min, 5 μM: Caco-2, pH 7.4, PappB-A/PappA-B, read-out: Caco2 efflux ratio (ER); for Papp A→B at 120 min, 5 μM: Caco-2, pH 7.4, apical-to-basolateral, read-out: Caco2 A-B apparent permeability (Papp); for Papp A→B at 120 min, 5 μM / Papp B→A at 120 min, 5 μM: HBSS pH 7.4, 120 min, 37° C.; for Papp B→A at 120 min, 5 μM: Caco-2, pH 7.4, basolateral-to-apical, read-out: Caco2 B-A apparent permeability (Papp)
# Procedure: The apical-to-basolateral (A-B) and basolateral-to-apical (B-A) transport of 5 μM test compounds in HBSS (10 mM HEPES, pH 7.4) was measured across Caco-2 cell monolayers (cells sourced from American Type Culture Collection, Manassas, Virgina). Duplicate incubations were performed at approximately 37° C. for 120 min, with functionality of the test system confirmed using 5 μM propranolol and digoxin as control compounds. Aliquots (50 μL) from both apical and basolateral wells were transferred into two fresh 96-well plates and quenched with acetonitrile solution containing analytical internal standards. Samples were vortexed mixed, centrifuged and a 100 μL aliquot of the resulting supernatant mixed with an equal volume of ultra-pure water prior to analysis by UPLC-MS/MS. The concentrations of test compound and control compounds in the incubation medium of donor and receiver compartments at the beginning and the end of the incubation period were used to calculate the apparent permeability (Papp) from A-B and B-A directions. The efflux ratio (ER) was expressed as PappB-A/PappA-B. The integrity of the cell monolayers after 2 hours incubation was confirmed using the marker reagent Lucifer yellow.
# Sequence of Recombinant full length PARP2 (Q9UGN5 whole entry): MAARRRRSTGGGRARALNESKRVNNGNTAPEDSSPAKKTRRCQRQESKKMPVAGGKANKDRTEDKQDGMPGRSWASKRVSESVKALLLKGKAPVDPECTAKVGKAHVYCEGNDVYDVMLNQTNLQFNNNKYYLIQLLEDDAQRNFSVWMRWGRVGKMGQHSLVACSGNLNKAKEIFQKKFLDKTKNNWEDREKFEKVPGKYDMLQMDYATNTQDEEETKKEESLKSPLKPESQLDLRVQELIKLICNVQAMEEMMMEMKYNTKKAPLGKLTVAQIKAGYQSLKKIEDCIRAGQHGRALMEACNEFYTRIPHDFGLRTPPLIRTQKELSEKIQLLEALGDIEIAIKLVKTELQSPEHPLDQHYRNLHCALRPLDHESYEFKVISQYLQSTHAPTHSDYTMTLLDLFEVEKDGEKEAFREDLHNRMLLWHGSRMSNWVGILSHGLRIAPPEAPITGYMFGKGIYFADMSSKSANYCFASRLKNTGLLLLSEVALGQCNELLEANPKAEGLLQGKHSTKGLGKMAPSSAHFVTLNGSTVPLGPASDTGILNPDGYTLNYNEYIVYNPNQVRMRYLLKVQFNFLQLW
IC50 [1],IC50 [2],IC50 (DLD1-BRCA2−/− cells),"efflux ratio at 120 min, 5 μM [3]","Papp A→B at 120 min, 5 μM [3]","Papp B→A at 120 min, 5 μM [3]",SMILES
3760 nM,5.9 nM,12.2 nM,,,,"CCc1cc2ncc(C(C)N3CC(Oc4ccc(C(=O)NC)nc4)C3)cc2[nH]c1=O (racemic) [Compound 43, 5-((1-(1-(7-ethyl-6-oxo-5,6-dihydro-1,5-naphthyridin-3-yl)ethyl)azetidin-3-yl)oxy)-N-methylpicolinamide]"
> 10000 nM,4.4 nM,256 nM,,,,"CCc1cc2ncc(CN3CC[C@@H](Oc4ccc(C(=O)NC)nc4C)C3)cc2[nH]c1=O [Compound 30, (R)-5-((1-((7-ethyl-6-oxo-5,6-dihydro-1,5-naphthyridin-3-yl)methyl)pyrrolidin-3-yl)oxy)-N,6-dimethylpicolinamide]"
,2.12 nM,38.5 nM,,,,"CCc1nc2ccc(C(C)N3CC(Oc4ccc(-n5ccnn5)nc4)C3)cc2[nH]c1=O (stereo not shown) [Compound 54, 7-(1-(3-((6-(1H-1,2,3-triazol-1-yl)pyridin-3-yl)oxy)azetidin-1-yl)ethyl)-3-ethylquinoxalin-2(1H)-one]"
> 10000 nM,6.6 nM,48.6 nM,,,,"CNC(=O)c1ccc(OC2CCN(Cc3cnc4cc(C5CC5)c(=O)[nH]c4c3)C2)cn1 (stereo not shown) [Compound 14, 5-((1-((7-cyclopropyl-6-oxo-5,6-dihydro-1,5-naphthyridin-3-yl)methyl)pyrrolidin-3-yl)oxy)-N-methylpicolinamide]"
> 10000 nM,4.4 nM,> 1000 nM,,,,"CCc1cc2ncc(CN3CC(Oc4ccc(C(=O)NC)nc4C)C3)cc2[nH]c1=O [Compound 44, 5-((1-((7-ethyl-6-oxo-5,6-dihydro-1,5-naphthyridin-3-yl)methyl)azetidin-3-yl)oxy)-N,6-dimethylpicolinamide]"
> 10000 nM,9.6 nM,7.9 nM,,,,"CCc1cc2ncc(CN3CC[C@@H](Oc4ccc(C(=O)NC)nc4F)C3)cc2[nH]c1=O [Compound 29, (R)-5-((1-((7-ethyl-6-oxo-5,6-dihydro-1,5-naphthyridin-3-yl)methyl)pyrrolidin-3-yl)oxy)-6-fluoro-N-methylpicolinamide]"
,11 nM,10.9 nM,3.01,8.54 ×10⁻⁶ cm/s,25.8 ×10⁻⁶ cm/s,"CCc1nc2ccc([C@H](C)N3CC(Oc4ccc(C(=O)NC)nc4F)C3)cc2[nH]c1=O (single isomer, unassigned) [Compound 56, (enantiomer 1 or 2)-5-((1-(1-(2-ethyl-3-oxo-3,4-dihydroquinoxalin-6-yl)ethyl)azetidin-3-yl)oxy)-6-fluoro-N-methylpicolinamide]"
> 10000 nM,6.1 nM,> 1000 nM,,,,"CCc1cc2ncc(C(C)N3CC(Oc4ccc(C(=O)NC)nc4C)C3)cc2[nH]c1=O (stereo not shown) [Compound 19, 5-((1-(1-(7-ethyl-6-oxo-5,6-dihydro-1,5-naphthyridin-3-yl)ethyl)azetidin-3-yl)oxy)-N,6-dimethylpicolinamide]"
> 10000 nM,7.3 nM,542 nM,,,,"CCc1cc2ncc(CN3C[C@H](Oc4ccc(C(=O)NC)nc4)[C@@H](F)C3)cc2[nH]c1=O [Compound 24, 5-(((3S,4S)-1-((7-ethyl-6-oxo-5,6-dihydro-1,5-naphthyridin-3-yl)methyl)-4-fluoropyrrolidin-3-yl)oxy)-N-methylpicolinamide]"
,28.1 nM,554 nM,1.5,9.92 ×10⁻⁶ cm/s,14.8 ×10⁻⁶ cm/s,"CCc1nc2ccc(C(C)N3CC(Oc4ccc(C(=O)NC)nc4F)C3)c(F)c2[nH]c1=O (stereo not shown) [Compound 55, 5-((1-(1-(2-ethyl-5-fluoro-3-oxo-3,4-dihydroquinoxalin-6-yl)ethyl)azetidin-3-yl)oxy)-6-fluoro-N-methylpicolinamide]"
,,14.3 nM,10.3,3.55 ×10⁻⁶ cm/s,36.5 ×10⁻⁶ cm/s,"CCc1cc2ncc(CN3CCC(Oc4ccc(C(=O)NC)nc4)C3)cc2[nH]c1=O (stereo not shown) [Compound 9, 5-((1-((7-ethyl-6-oxo-5,6-dihydro-1,5-naphthyridin-3-yl)methyl)pyrrolidin-3-yl)oxy)-N-methylpicolinamide]"
